According to ChEMBL document CHEMBL1201862, “PubChem BioAssay data set” (2004):
Active and inactive are the calls of the source.

Key:
Caspase-3 = target: T1, Caspase-3 (Homo sapiens, UniProt P42574); experiment: human caspase-3 protease activity blockade – biochemical, fluorescence, cherry-picked samples, selectivity assay for caspase-6 allosteric inhibitor project, dose response (AID 743291)
T1 sequence (P42574 whole entry): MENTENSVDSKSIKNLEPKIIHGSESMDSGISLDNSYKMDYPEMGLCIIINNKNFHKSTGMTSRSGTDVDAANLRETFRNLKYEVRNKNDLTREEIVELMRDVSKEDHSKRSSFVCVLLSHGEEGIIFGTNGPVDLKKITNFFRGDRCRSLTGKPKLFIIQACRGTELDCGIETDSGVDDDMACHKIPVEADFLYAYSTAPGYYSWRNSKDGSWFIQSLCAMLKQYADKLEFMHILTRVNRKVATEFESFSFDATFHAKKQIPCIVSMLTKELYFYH

Caspase-7 = Caspase-7 (Homo sapiens, UniProt P55210); experiment: caspase-7 enzyme inhibition, selectivity check – biochemical, DEVD-R110 fluorescence, cherry-pick, selectivity assay for caspase-6 inhibitor project, dose response (AID 743295); format: functional
Sequence of Caspase-7 (P55210 24-198 limits assumed): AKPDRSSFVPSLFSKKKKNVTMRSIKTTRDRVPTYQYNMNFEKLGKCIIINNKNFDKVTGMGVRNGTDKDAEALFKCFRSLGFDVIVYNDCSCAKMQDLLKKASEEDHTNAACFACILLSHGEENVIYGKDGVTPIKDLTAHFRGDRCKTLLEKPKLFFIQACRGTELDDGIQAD
Sequence of Caspase-7 (P55210 207-303 limits assumed): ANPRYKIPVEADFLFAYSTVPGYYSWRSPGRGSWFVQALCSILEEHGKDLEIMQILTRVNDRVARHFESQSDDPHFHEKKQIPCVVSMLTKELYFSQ

Caspase-6 = target: T2, Caspase-6 (Homo sapiens, UniProt P55212); experiment: inhibition of CASP6 peptide cleavage – biochemical, VEID-R110 fluorescence, cherry-pick, dose response (AID 720632)
T2 sequence (P55212 whole entry): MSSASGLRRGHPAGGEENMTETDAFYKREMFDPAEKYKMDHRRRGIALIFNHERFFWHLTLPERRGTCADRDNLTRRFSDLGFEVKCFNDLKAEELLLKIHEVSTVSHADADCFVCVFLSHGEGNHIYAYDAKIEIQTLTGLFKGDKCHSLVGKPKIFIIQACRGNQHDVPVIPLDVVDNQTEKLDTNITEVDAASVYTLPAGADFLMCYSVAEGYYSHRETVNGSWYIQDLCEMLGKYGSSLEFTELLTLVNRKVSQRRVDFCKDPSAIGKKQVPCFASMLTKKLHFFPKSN

[1] = target: T3, Intestinal-type alkaline phosphatase (Homo sapiens, UniProt P09923); experiment: activation of human intestinal alkaline phosphatase – biochemical, dose response (AID 488873); format: functional
T3 sequence (P09923 whole entry): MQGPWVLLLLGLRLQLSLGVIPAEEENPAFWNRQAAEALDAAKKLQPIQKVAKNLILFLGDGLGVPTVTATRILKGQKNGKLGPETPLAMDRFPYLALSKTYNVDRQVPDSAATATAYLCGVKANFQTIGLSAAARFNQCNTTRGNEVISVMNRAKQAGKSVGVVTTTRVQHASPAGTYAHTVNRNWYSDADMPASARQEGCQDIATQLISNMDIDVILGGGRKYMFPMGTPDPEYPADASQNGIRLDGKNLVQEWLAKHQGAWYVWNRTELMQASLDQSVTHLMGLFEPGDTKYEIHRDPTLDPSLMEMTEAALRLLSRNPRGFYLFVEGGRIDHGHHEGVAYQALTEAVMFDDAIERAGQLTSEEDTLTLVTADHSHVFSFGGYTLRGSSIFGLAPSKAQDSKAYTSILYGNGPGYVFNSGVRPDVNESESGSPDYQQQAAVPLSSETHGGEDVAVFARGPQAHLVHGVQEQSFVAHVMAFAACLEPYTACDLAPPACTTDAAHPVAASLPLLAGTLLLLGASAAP

[2] = target: Intestinal-type alkaline phosphatase (Mus musculus, UniProt P24822); experiment: PubChem AID 488785; format: functional
Sequence of Intestinal-type alkaline phosphatase (Mus musculus, UniProt P24822) (P24822 whole entry): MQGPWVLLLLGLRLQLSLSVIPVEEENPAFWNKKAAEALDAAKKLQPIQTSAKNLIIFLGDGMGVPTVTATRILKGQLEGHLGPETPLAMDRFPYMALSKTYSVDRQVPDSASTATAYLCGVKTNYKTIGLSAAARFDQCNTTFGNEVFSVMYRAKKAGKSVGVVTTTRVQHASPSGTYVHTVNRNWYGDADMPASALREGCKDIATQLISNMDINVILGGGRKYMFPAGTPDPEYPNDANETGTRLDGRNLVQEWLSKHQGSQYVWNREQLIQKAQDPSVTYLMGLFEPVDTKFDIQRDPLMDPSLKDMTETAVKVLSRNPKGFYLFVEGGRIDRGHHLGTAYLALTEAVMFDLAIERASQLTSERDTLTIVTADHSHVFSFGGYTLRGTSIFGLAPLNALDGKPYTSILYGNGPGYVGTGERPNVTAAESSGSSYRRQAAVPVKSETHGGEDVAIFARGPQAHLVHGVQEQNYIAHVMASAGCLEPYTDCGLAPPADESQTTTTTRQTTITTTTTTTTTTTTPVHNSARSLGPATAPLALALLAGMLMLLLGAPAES

[3] = target: Induced myeloid leukemia cell differentiation protein Mcl-1 (Homo sapiens, UniProt Q07820); format: functional
Sequence of Induced myeloid leukemia cell differentiation protein Mcl-1 (Q07820 whole entry): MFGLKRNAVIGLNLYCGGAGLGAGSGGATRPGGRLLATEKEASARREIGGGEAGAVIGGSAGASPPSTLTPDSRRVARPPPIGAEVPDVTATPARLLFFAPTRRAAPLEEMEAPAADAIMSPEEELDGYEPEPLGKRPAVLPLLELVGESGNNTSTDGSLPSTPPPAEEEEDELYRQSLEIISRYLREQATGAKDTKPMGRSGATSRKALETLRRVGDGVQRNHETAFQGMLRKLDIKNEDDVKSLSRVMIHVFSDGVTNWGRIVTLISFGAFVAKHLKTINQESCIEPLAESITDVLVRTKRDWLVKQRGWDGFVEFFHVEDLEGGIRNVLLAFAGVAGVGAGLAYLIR

[4] = target: Ras and Rab interactor 1/Tyrosine-protein kinase ABL1 (Homo sapiens, UniProt P00519+Q13671); format: functional;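 also: biochemical TR-FRET dose-response test measuring inhibition of binding between Rin1 and Abl proteins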
[5] = target: T4, Alkaline phosphatase, tissue-nonspecific isozyme (Homo sapiens, UniProt P05186); experiment: TNAP enzyme inhibition by screening hits, dose response, selectivity assay for mouse IAP inhibitor project, biochemical, human TNAP, uHTS hits (AID 488906); format: functional
T4 sequence (P05186 whole entry): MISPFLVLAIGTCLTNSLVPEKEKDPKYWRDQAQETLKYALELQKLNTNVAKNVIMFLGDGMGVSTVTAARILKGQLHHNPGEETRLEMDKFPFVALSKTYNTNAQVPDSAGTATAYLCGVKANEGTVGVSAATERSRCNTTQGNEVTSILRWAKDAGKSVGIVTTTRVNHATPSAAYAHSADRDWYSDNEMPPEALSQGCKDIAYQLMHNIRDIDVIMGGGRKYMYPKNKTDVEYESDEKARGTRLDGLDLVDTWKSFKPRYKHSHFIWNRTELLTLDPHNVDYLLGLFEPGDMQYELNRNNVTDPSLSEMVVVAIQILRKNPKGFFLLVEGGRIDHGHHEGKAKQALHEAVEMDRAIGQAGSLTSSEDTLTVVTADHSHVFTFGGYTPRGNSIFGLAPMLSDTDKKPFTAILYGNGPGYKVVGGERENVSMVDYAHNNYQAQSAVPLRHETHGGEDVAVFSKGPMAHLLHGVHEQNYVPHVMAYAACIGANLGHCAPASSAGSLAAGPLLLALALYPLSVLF

Large T antigen = Large T antigen (Simian virus 40, UniProt P03070); format: functional, Betapolyomavirus macacae;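 also: Confirmatory-stage PubChem screen for compounds that inhibit SV40 T antigen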
Sequence of Large T antigen (P03070 whole entry): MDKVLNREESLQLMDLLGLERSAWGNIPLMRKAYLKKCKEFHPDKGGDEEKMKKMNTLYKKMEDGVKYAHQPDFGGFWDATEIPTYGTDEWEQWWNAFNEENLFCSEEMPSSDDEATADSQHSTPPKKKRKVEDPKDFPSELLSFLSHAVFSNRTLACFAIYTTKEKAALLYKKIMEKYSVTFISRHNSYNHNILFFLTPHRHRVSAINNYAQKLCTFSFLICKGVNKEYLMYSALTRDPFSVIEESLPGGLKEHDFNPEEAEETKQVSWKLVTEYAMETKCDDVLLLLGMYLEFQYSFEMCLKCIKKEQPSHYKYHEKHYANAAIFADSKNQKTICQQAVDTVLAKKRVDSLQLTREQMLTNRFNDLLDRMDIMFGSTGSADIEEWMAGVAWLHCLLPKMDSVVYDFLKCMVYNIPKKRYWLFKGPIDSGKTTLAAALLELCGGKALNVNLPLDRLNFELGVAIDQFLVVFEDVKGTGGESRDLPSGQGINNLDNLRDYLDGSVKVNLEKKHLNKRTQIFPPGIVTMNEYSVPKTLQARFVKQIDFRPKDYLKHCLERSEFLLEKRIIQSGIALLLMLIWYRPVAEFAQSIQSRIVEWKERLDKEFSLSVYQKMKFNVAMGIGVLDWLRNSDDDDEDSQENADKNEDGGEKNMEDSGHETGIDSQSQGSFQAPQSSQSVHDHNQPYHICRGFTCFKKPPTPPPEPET

[6] = viability loss in HepG2 liver cells – cell-based, ATP luminescence, cherry-pick, set 6, cytotoxicity control, dose response (AID 1053125); format: functional
[7] = target: NAD-dependent protein deacylase sirtuin-5, mitochondrial (Homo sapiens, UniProt Q9NXA8); experiment: sirtuin-5 deacylation blockers, concentration series – biochemical, fluorescence imaging, cherry-pick, set 5, dose response (AID 720591);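 also: desuccinylation of succinyl peptide AMC substrate read as fluorescence after trypsin release; potency of inhibitors that lower fluorescence and may act on trypsin instead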
Sequence of NAD-dependent protein deacylase sirtuin-5, mitochondrial (Q9NXA8 whole entry): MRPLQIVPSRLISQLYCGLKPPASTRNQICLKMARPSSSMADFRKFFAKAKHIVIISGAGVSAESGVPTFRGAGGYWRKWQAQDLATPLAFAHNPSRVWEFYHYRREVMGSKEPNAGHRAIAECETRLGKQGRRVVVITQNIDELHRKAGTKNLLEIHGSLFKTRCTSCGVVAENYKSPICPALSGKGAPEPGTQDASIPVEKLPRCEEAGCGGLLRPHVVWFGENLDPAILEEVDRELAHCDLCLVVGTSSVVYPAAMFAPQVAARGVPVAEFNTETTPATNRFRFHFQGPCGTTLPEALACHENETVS

cells = details: HEK293
[8] = target: COUP transcription factor 2 (Homo sapiens, UniProt P24468); experiment: Luminescence-based cell-based high throughput dose response assay to identify inhibitors of COUP-TFII (NR2F2).; format: functional;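 also: HEK293 cells transiently cotransfected with COUP-TFII expression vector and reporter; luciferase reporter luminescence driven by COUP-TFII from the pX2-168 reporter plasmid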
Sequence of COUP transcription factor 2 (P24468 whole entry): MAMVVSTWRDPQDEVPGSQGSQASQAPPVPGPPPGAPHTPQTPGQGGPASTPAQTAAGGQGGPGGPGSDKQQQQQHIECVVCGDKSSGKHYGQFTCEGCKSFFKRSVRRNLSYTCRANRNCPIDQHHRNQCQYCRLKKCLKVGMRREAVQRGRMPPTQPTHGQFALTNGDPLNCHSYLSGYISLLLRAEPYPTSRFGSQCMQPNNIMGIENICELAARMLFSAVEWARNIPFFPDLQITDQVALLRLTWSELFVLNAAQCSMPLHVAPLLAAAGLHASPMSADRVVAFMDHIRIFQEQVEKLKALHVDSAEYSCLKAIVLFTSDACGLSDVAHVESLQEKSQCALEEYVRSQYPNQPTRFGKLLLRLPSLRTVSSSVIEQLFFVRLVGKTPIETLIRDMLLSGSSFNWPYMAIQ

[9] = target: T5, DNA repair protein RAD52 homolog (Homo sapiens, UniProt P43351); format: functional, biochemical
T5 sequence (P43351 whole entry): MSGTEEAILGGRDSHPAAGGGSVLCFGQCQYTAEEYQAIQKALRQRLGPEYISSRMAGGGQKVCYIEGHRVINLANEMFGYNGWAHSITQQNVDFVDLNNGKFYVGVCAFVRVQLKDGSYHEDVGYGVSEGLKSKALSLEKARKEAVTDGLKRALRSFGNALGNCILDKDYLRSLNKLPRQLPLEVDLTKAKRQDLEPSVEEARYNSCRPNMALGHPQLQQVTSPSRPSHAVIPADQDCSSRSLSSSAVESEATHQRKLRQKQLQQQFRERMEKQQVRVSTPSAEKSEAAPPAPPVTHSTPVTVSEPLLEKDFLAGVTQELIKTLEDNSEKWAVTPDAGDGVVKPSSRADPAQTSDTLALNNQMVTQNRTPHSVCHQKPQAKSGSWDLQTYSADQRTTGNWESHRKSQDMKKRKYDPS

[10] = target: Disintegrin and metalloproteinase domain-containing protein 17 (Homo sapiens, UniProt P78536); experiment: inhibition of ADAM17 substrate cleavage – biochemical, quenched FRET substrate, counter-screen for ADAM10 exosite inhibitor project, dose response (AID 743253)
Sequence of Disintegrin and metalloproteinase domain-containing protein 17 (P78536 whole entry, the tested form may be a part): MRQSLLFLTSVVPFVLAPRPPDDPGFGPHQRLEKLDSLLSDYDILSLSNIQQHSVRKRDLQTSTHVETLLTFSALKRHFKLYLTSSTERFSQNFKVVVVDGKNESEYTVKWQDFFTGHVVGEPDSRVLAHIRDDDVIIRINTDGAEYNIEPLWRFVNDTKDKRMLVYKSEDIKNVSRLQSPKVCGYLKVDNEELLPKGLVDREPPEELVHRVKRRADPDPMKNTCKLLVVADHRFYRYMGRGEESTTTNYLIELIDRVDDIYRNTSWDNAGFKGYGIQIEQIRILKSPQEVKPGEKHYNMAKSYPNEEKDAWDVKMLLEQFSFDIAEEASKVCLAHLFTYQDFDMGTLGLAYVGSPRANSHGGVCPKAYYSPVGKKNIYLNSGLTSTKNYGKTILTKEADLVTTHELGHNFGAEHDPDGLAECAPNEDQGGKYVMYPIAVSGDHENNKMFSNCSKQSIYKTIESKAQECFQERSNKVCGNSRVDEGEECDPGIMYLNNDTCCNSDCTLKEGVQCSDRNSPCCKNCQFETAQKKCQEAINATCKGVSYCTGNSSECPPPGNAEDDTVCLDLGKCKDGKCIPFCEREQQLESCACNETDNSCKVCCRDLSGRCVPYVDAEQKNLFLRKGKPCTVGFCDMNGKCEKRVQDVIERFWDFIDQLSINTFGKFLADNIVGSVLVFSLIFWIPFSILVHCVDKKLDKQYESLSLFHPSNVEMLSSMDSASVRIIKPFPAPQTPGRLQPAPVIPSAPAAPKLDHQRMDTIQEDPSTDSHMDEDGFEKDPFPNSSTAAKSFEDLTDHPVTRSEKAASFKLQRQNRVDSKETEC

[11] = potency of ADAM10 substrate cleavage blockers – biochemical, QFRET, dose response (AID 743254);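 also: ADAM10 enzyme with the DM2 quenched FRET peptide as substrate; EDANS fluorescence gain as the protease cuts the substrate; inhibitor potency against ADAM10 proteolytic activity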
[12] = target: Eukaryotic translation initiation factor 4E (Mus musculus, UniProt P63073); experiment: blockers of eIF4G binding by eIF4E – biochemical, TR-FRET, dose response (AID 855); format: functional;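 also: potency for disrupting eIF4E binding to eIF4GI seen as loss of FRET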
Sequence of Eukaryotic translation initiation factor 4E (P63073 whole entry): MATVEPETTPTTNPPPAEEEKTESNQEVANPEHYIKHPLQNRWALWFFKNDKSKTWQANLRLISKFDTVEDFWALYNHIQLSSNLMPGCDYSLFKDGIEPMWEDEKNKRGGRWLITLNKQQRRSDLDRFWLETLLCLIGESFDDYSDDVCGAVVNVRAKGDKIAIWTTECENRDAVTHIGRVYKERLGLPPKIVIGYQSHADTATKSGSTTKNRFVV

Caspase-8 = Caspase-8 (Homo sapiens, UniProt Q14790); experiment: inhibitors of purified CASP8 protease – biochemical, Z-IETD-R110 fluorescence, cherry-picked samples, selectivity assay for caspase-6 inhibitor project, dose response (AID 743294)
Sequence of Caspase-8 (Q14790 217-374 limits assumed): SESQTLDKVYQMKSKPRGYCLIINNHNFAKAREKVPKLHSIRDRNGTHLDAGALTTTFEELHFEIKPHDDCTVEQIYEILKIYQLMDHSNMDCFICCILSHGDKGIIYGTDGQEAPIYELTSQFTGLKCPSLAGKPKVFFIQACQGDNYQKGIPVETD
Sequence of Caspase-8 (Q14790 385-479 limits assumed): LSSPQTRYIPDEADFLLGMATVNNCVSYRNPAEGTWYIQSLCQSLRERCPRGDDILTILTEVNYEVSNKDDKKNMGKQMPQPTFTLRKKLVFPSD

[13] = target: T3, Intestinal-type alkaline phosphatase; experiment: inhibition of human intestinal alkaline phosphatase – biochemical, dose response (AID 488876); format: functional
[14] = target: T6, Small ubiquitin-related modifier 2 (Homo sapiens, UniProt P61956); experiment: SUMO2 binding disruption by SUMO1 hits – biochemical, FRET, human SUMO2, uHTS hits, selectivity assay for SUMO1 interaction inhibitor project, dose response (AID 624384); format: functional; details: read-out: IC50_Mean
T6 sequence (P61956 whole entry): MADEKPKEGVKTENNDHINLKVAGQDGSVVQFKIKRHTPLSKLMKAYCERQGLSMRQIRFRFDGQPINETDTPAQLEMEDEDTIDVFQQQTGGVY

[15] = target: T7, Small ubiquitin-related modifier 1 (Homo sapiens, UniProt P63165); experiment: SUMO1 protein-protein binding blockers, potency – biochemical, FRET, dose response (AID 624383); format: functional; details: read-out: IC50_Mean
T7 sequence (P63165 whole entry): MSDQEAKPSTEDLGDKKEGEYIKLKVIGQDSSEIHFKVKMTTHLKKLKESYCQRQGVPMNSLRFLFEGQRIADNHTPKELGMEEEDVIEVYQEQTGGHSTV

[16] = target: T8, Rac GTPase-activating protein 1 (Homo sapiens, UniProt Q9H0H5); experiment: blockers of MgcRacGAP-driven Rac1 GTP hydrolysis – biochemical, ADP Hunter fluorescence, primary and confirmatory, confirmation (AID 624330); format: functional
T8 sequence (Q9H0H5 whole entry): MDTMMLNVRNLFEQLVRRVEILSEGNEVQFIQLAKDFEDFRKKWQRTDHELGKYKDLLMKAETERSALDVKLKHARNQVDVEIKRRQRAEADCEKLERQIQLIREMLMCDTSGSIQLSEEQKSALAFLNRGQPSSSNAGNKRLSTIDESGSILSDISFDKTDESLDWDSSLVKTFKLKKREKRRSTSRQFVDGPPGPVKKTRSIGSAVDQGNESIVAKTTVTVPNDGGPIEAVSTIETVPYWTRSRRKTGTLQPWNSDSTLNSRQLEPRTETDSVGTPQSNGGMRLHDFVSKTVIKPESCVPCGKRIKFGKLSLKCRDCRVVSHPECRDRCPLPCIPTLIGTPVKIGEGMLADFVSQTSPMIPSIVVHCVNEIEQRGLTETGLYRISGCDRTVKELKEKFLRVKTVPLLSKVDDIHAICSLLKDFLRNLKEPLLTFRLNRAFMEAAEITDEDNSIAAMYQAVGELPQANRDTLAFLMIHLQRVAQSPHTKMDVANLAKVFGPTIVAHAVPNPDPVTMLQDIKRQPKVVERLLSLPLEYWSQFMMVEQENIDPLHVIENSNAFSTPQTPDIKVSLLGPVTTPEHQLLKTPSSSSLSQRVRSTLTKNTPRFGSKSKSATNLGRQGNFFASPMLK

[17] = target: T9, Histone-lysine N-methyltransferase NSD2 (Homo sapiens, UniProt O96028); format: biochemical
T9 sequence (O96028 whole entry): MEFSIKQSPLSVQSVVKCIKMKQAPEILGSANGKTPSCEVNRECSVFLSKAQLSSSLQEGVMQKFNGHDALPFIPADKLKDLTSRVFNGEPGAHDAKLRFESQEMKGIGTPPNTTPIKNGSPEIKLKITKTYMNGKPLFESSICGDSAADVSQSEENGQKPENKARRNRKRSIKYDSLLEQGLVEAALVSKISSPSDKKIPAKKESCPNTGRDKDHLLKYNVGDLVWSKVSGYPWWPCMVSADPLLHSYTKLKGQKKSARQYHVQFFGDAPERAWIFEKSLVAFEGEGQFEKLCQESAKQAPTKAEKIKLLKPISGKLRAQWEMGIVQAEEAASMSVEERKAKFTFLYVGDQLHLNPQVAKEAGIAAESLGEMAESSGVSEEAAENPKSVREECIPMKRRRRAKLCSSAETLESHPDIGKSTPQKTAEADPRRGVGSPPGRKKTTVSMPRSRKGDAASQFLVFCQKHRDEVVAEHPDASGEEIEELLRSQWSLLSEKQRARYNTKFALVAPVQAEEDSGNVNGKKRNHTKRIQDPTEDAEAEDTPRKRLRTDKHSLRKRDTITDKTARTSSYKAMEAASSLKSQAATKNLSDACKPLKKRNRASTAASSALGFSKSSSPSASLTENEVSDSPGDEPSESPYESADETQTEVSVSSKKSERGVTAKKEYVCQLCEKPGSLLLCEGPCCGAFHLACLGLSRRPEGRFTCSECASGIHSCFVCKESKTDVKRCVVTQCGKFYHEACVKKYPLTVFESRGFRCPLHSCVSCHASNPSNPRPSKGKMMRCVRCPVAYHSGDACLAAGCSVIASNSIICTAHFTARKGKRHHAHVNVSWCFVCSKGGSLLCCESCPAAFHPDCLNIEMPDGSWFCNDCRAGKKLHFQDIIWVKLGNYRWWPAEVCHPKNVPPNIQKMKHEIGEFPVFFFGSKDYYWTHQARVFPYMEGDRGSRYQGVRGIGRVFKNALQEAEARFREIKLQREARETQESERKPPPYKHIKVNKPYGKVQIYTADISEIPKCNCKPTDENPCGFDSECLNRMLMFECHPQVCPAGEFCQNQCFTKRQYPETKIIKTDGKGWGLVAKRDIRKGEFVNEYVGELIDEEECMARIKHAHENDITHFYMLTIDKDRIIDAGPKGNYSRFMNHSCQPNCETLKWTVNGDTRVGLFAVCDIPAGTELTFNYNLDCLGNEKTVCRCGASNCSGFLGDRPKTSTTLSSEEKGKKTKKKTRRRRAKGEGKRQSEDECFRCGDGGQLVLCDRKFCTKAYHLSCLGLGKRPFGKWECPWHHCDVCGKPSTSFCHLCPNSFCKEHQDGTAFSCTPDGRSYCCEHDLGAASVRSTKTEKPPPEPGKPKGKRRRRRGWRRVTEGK

[18] = target: T7, Small ubiquitin-related modifier 1; experiment: SUMO1 protein interaction blockers, potency – biochemical, fluorescence polarization, uHTS hits, dose response (AID 624382); format: functional; details: read-out: IC50_Mean
[19] = target: T6, Small ubiquitin-related modifier 2; experiment: disruption of SUMO2 interaction with SIM peptide – biochemical, fluorescence polarization, uHTS hits, selectivity assay for SUMO1 interaction inhibitor project, dose response (AID 624385); format: functional; details: read-out: IC50_Mean

O=C(CCO)c1ccc(O)cc1
AC50 (Caspase-3): 31.7 µM (active) | AC50 (Caspase-7): 9.65 µM (active) | AC50 (Caspase-6): 1.32 µM (active) | EC50 [1]: 11.3 µM (active) | IC50 [2]: > 100 µM (inactive) | IC50 [3]: 5.16 µM (active) | IC50 [4]: 11.9 µM (inactive) | IC50 [5]: > 100 µM (inactive) | IC50 (Large T antigen): 28.8 µM (active)

CCOC(=O)c1cc2c(=O)n3ccccc3nc2n(C(C)C)/c1=N/C(=O)c1ccco1
AC50 [6]: > 52 µM (inactive)

O=C(Cn1nc(-c2ccc(Cl)cc2)ccc1=O)NCC1COCCO1 (stereo not given)
AC50 [7]: > 30 µM (inactive)

C1CCNCC1.N#CC1=C(N)Oc2cc(O)ccc2C1c1ccc2c(c1)OCO2 (stereo not given)
AC50 (cells): > 52 µM (inactive)

NC(S)=NN=C1c2cc(OCCN3CCOCC3)ccc2-c2ccc(OCCN3CCOCC3)cc21
IC50 [8]: 5.24 µM (active) | AC50 [9]: 1.07 µM (active)

Oc1cc2c(cc1C(c1ccc(Cl)c(Cl)c1)N1CCCC1)OCO2 (stereo not given)
IC50 [3]: 4.76 µM (not active) | IC50 [10]: 20 µM (inactive) | IC50 [11]: 4.72 µM (active) | IC50 [12]: 50 µM (inactive)

O=C(COC(=O)c1ccccc1)Nc1ncc([N+](=O)[O-])s1
AC50 (Caspase-8): 61.3 µM (active) | AC50 (Caspase-7): 16.3 µM (active) | IC50 [13]: 80.6 µM (active) | AC50 (Caspase-6): 0.951 µM (active) | IC50 [14]: > 66 µM (inactive) | IC50 [2]: < 0.195 µM (active) | IC50 [15]: 51.7 µM (inactive) | IC50 [16]: 50.2 µM (active) | AC50 [17]: 2.74 µM (active) | IC50 [18]: 9.39 µM (active) | IC50 [5]: 1.06 µM (active) | IC50 [19]: 14.7 µM (active)
